# Experimental data taken from publication PMC4694998, “Suppression of β-catenin/TCF transcriptional activity and colon tumor cell growth by dual inhibition of PDE5 and 10” (Oncotarget, 2015).
# Tests used:
# PDE10 = molecular target: T1, PDE10 (Homo sapiens, UniProt Q9Y233); test: IMAP fluorescence polarization PDE assay, recombinant PDE10; type: biochemical; conditions: recombinant enzyme
# T1 construct: purchased BPS Biosciences
# Experimental: (§1) Recombinant PDE isozymes were purchased from BPS Biosciences. The PDE10 antibody was purchased from GeneTex, while the PDE5 antibody was purchased from Cell Signaling Technologies. Non-targeting control siRNA and PDE10 specific siRNAs were purchased from Qiagen. RNAiMAX transfection reagent was purchased from Invitrogen. DMSO was used as vehicle for all compounds unless otherwise noted. All other reagents were purchased from Sigma.
# (§2) PDE activity was measured using the IMAP fluorescence polarization (FP) PDE assay (Molecular Devices) in which binding of hydrolyzed fluorescent cyclic nucleotide substrate to the IMAP reagent increases FP as described previously.
# (§3) The IC50 values were determined as described previously. All experiments were repeated a minimum of three times to determine the reproducibility of the results. All error bars represent standard error of the mean (SEM). Statistical analysis of differences between samples was performed using the Student’s t-test. A P value of < 0.05 was considered statistically significant.
# purified ovine COX-2 = molecular target: T2, purified ovine COX-2 (Ovis aries, UniProt P79208); test: COX-2 colorimetric assay; type: biochemical
# T2 construct: purchased Cayman
# T2 sequence (P79208 17-603): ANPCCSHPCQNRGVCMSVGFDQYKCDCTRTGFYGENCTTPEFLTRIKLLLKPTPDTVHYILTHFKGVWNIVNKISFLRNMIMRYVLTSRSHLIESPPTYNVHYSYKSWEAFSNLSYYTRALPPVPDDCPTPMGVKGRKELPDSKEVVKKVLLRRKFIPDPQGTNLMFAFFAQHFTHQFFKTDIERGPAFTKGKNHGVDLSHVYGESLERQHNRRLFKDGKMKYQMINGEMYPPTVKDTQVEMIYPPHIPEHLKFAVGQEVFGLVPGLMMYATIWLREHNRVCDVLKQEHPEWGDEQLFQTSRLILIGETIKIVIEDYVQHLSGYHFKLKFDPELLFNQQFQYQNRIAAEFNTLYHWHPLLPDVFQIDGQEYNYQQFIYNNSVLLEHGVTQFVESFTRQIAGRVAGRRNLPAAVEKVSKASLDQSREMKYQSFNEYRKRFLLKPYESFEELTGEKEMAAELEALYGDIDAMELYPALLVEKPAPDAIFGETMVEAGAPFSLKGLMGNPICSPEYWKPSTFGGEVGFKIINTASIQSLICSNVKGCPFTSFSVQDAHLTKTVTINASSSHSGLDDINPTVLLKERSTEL
# Experimental: (§4) COX-1 and COX-2 activities were measured using purified ovine COX-1 and COX-2 with colorimetric assay kits obtained from Cayman as previously reported. The activities of COX-1 and COX-2 were measured after the addition of arachidonic acid and incubation at 25°C for 5 min by absorbance at 590 nm as specified by the manufacturer.
# as §3
# purified ovine COX-1 = molecular target: T3, purified ovine COX-1 (Ovis aries, UniProt P05979); test: COX-1 colorimetric assay; type: biochemical
# T3 construct: purchased Cayman
# T3 sequence (P05979 25-600): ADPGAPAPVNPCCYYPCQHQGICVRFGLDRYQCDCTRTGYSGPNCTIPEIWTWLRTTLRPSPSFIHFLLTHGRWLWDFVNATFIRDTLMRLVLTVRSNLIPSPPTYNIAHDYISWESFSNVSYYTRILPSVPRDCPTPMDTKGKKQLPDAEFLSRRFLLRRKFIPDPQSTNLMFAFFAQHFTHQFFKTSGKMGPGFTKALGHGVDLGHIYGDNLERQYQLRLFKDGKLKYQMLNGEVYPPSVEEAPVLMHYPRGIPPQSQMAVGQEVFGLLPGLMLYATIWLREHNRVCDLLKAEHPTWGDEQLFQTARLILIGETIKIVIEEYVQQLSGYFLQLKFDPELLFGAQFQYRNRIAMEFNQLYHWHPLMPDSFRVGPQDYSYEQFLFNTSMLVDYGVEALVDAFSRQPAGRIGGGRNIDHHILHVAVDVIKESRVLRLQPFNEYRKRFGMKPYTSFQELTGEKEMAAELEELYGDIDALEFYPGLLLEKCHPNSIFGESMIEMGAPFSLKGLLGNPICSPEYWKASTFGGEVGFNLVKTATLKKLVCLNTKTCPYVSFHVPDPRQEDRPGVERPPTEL
# Experimental: as §4, §3
# [1] = test system: β-catenin signaling in HCT116 colon tumor cells; test: Western blotting of β-catenin, cyclin D1, survivin, HCT116; type: cell-based, human
# Experimental: Western blotting was performed as described previously. Cells were treated with ADT-094 or vehicle for 8 hours before cell lysates were collected.
# HT29 colon tumor cells = test: Growth assay (Cell Titer Glo), HT29; type: cell-based; conditions: Homo sapiens, HT-29; 72 hours of treatment; read-out: HT29 growth IC50
# Experimental: Human colon tumor cell lines, HCT116, HT29, SW480 and Caco-2 were obtained from the American Type Culture Collection (ATCC) and grown under standard cell culture conditions in RPMI 1640 medium containing 5% serum at 37°C in a humidified atmosphere with 5% CO2. The human colonocyte line, NCM460, that is derived from normal human colon mucosa was obtained from INCELL and grown in INCELL’s enriched M3:10 medium with 10% serum as recommended by supplier. All cell lines were expanded upon delivery, and numerous aliquots of low passage cells were preserved in liquid N2. Cells were passaged no longer than 2 months. Tumor cell lines obtained from ATCC were characterized by STR profiling as performed by ATCC. The NCM460 line was characterized by INCELL as described previously (e.g. tumorigenicity testing). No additional re-authentication of the cell lines was performed except for experimental reasons (e.g. confirmation of cell doubling time, morphology, sensitivity to SS, PDE5/10 expression levels, etc).
# Cells were plated in 96-well microtiter plates at a density of 5,000 cells per well. For drug treatment, cells were treated with compound or vehicle, and incubated at 37°C for 72 hours. All growth assays were performed in 5% serum unless otherwise noted. Deionized water was used as vehicle control for papaverine. For siRNA assays, cells were transfected with siRNA under the same condition described above. The effect of treatment on cell growth was measured using the Cell Titer Glo Assay as specified by the manufacturer (Promega).
# as §3
# PDE5 = molecular target: T4, PDE5 (Homo sapiens, UniProt O76074); test: IMAP fluorescence polarization PDE assay, recombinant PDE5; type: biochemical; conditions: recombinant enzyme
# T4 construct: purchased BPS Biosciences
# Experimental: as §1, §2, §3
# T1 sequence (Q9Y233 267-1055): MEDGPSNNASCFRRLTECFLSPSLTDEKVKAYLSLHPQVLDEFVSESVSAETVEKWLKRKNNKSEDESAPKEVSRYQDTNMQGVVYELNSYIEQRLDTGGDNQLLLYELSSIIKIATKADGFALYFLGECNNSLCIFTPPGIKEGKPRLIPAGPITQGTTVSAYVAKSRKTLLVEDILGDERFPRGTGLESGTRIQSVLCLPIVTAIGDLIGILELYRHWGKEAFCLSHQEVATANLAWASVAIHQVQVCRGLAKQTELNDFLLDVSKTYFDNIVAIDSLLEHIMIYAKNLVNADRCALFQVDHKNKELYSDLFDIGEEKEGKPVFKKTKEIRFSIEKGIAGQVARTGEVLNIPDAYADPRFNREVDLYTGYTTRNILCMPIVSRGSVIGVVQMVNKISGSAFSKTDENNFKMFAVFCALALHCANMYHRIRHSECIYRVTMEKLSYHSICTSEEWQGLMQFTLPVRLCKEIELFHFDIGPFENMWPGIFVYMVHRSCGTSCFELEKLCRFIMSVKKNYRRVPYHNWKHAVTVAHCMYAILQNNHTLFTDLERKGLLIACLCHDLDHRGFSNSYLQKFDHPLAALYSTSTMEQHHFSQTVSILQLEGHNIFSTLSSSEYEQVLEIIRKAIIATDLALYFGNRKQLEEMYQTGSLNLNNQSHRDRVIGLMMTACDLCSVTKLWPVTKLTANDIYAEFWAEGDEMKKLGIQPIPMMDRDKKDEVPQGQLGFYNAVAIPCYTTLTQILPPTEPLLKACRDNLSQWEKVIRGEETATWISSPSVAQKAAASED
compound,measurement,setting,value
"COc1ccc2c(c1)C(CC(=O)NCc1ccco1)=C(C)/C2=C/c1cc(OC)c(OC)c(OC)c1 [ADT-094, (Z)-N-(furan-2-ylmethyl)-2-(5-methoxy-2-methyl-1-(3,4,5-trimethoxybenzylidene)-1H-inden-3-yl) acetamide]",IC50,PDE10,0.5 µM
same,IC50,purified ovine COX-2; Figure 3A,145 µM
same,COX-2 inhibitory activity,purified ovine COX-2; in words,essentially lacks
same,IC50,purified ovine COX-1; Figure 3A,81 µM
same,COX-1 inhibitory activity,purified ovine COX-1; in words,essentially lacks
same,levels of cyclin D1 and survivin,[1],also decreased
same,β-catenin levels,[1],dose-dependent decrease
same,IC50,HT29 colon tumor cells,0.1 µM
same,IC50,PDE5,2.4 µM
